{"source": "paper PMC3763632", "about": "“Radiosynthesis and Radiotracer Properties of a 7-(2-[^18F]Fluoroethoxy)-6-methoxypyrrolidinylquinazoline for Imaging of Phosphodiesterase 10A with PET” (Pharmaceuticals, 2012)", "key": {"[1]": {"experiment": "Chemical stability in vitro", "type": "physicochemical", "conditions": "for native [18F]IV remaining intact: up to 1.5 h", "procedure": "Furthermore, the chemical stability of [^18F]IV in vitro under physiological conditions was investigated. […] For formulation and storage, radioligand stability in acetonitrile (98%, 1 h, 80 °C) and in ethanol (98%, 1 h, 80 °C; ≥99%, 1.5 h, 40 °C) was proven."}, "PDE10A": {"biological_target": "T1, PDE10A (Rattus norvegicus, UniProt Q9QYJ6)", "T1 construct": "Frozen sagittal brain sections (12 μm) obtained from female SPRD rats (8–10 weeks); from tissue; host or cells: rat brain sections (female SPRD rats)", "T1 sequence (Q9QYJ6 1-794)": "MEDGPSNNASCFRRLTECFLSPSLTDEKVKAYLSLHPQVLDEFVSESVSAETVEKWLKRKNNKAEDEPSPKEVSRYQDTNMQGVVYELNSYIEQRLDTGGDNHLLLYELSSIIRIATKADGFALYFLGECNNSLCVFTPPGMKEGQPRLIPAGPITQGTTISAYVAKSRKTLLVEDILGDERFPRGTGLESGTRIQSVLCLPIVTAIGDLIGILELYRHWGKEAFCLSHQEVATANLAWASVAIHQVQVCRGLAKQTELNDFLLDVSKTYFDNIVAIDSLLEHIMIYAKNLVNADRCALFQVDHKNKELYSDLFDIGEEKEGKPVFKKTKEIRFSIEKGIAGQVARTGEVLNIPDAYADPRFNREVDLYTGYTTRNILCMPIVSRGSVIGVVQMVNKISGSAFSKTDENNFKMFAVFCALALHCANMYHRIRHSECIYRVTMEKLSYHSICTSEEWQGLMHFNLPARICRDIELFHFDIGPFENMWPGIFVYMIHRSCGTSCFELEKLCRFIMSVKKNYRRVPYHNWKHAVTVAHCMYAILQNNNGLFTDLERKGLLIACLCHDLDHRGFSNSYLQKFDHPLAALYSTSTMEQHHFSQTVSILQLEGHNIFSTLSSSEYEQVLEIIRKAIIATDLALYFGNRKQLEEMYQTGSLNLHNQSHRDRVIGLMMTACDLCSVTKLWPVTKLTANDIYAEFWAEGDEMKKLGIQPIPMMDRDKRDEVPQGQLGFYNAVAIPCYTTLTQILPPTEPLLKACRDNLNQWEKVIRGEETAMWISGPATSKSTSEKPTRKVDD", "experiment": "In vitro autoradiography on sagittal rat brain slices", "type": "binding", "conditions": "25 nM [18F]IV", "from_the_text": "Figure 3 Representative color-coded autoradiographic images of sagittal rat brain slices. […] CP, caudate putamen; NA, nucleus accumbens; OT, olfactory tubercle; Th, thalamus; Hi, hippocampus; SN, substantia nigra; Cb, cerebellum; Co, cortex; OB, olfactory bulb; PN, pontine nuclei.\nThis pattern corresponds with the immunohistochemical localization of PDE10A in rat brain described in Seeger et al..\nTherefore, species-specific patterns of PDE expression have to be considered in the development of PDE10A targeting PET ligands based on the herein reported quinazoline structures. […]\nFrozen sagittal brain sections (12 μm) obtained from female SPRD rats (8–10 weeks) were thawed, dried in a stream of cold air, preincubated for 20 min with 50 mM TRIS-HCl, pH 7.4, at room temperature, and dried again. […] After incubation, sections were washed twice for 2 min with 50 mM TRIS-HCl, pH 7.4 at 4 °C, dipped briefly in ice-cold deionized water (5 s), dried in a stream of cold air, and exposed for 17 h to ^18F-sensitive storage phosphor screens, which were analyzed using the BAS-1800 II system (see above)."}}}
{"compound": "COc1cc2c(N3CC[C@@H](Oc4cnc5ccccc5n4)C3)ncnc2cc1OCC[18F]", "note": "[[^18F]IV, (R)-7-(2-[^18F]Fluoroethoxy)-6-methoxy-4-(3-(quinoxalin-2-yloxy)pyrrolidin-1-yl)quinazoline]", "values": [{"measurement": "native [18F]IV remaining intact", "setting": "[1]; 0.01 M TRIS-HCl buffer (pH 7.4 at 21 °C), 40 °C", "value": "≥ 99", "unit": "%"}, {"measurement": "native [18F]IV remaining intact", "setting": "[1]; 0.9% sodium chloride solution (pH 7.2), 40 °C, radio-TLC", "value": "≥ 99", "unit": "%"}, {"measurement": "radioligand stability", "setting": "[1]; acetonitrile, 1 h, 80 °C", "value": 98, "unit": "%"}, {"measurement": "radioligand stability", "setting": "[1]; ethanol, 1 h, 80 °C", "value": 98, "unit": "%"}, {"measurement": "radioligand stability", "setting": "[1]; ethanol, 1.5 h, 40 °C", "value": "≥ 99", "unit": "%"}, {"measurement": "native [18F]IV remaining intact", "setting": "[1]; physiological phosphate-saline (pH 7.2), 40 °C", "value": 97, "unit": "%"}, {"measurement": "binding of [18F]IV on rat brain slices, co-incubation with IV", "setting": "PDE10A; 10 μM IV, 60 min", "value": "saturable binding"}, {"measurement": "inhibition of [18F]IV binding on rat brain slices by MP-10", "setting": "PDE10A; 10 μM MP-10, 60 min", "value": "not completely inhibited"}]}
